According to patent US8293231B2, “Methods and compositions for treating ischemia” (Blue Blood Biotech Corp., priority 2005, dated 2012):

Columns and labels:
[1] = tested on: PAI activity in conditioned media of HUVECs; assay: Plasminogen activator inhibitor (PAI) activity assay; assay type: cell-based, human; conditions: 12 h; 100 or 1000 ng/mL TMD23, 70 ng/mL PMA, 10 ng/mL VEGF
Procedure: (§1) HUVECs were seeded at 80% confluence on 100-mm dishes in M199 medium. After 24 h, cells were rinsed with serum-free M199 twice and incubated in serum-free M199 with various concentrations of TMD23, VEGF (10 ng/mL), or PMA (70 ng/mL) for 12 h. The conditioned medium containing […] secreted proteins was analyzed by gelatin- and casein-based zymographies. The digested area appeared clear on a blue background, indicating the location of matrix metalloproteinase (MMP) activity. To further verify MMP caseinolytic activity, the casein-containing gel was incubated with incubation buffer containing 10 mM EDTA, an inhibitor of MMPs, to observe disappearance of the clear band. Plasminogen activator inhibitor (PAI) activity was measured by titrating samples with increasing amounts of tissue-type plasminogen activator (t-PA) (Boehringer Ingelheim) into a fixed volume of endothelial-cell-conditioned media.
as §1, with “zymographies. Lee O H, et al., Identification of angiogenic properties of insulin-like growth factor II in in vitro angiogenesis models. Brit J. Cancer. 2000; 82:385-391.” for “zymographies.”, “media. Shi G Y., et al., Plasmin and the regulation of tissue-type plasminogen activator biosynthesis in human endothelial cells. […]” for “media.”

HUVECs [2] = assay: In vitro Matrigel angiogenesis assay (tube formation); assay type: cell-based, human; conditions: for Effect on the stimulatory effect of TMD23 on HUVEC tube formation: IgG 10 μg/mL, inhibitors 10 μM
Procedure: (§2) Growth-factor-reduced Matrigel (BD Biosciences) was thawed at 4° C. A total of 200 μL Matrigel was added to wells of a 48-well plate and polymerized 30 min at 37° C. Two hundred μL cell suspension containing various concentrations of VEGF, TMD23, or TMD23 in the presence of polyclonal rabbit anti-TMD23 antibody (10 μg/mL) or various signaling pathway inhibitors were plated onto Matrigel-coated wells at a density of 2.4×10^4 cells/well in M199 containing 10% FBS for 24 h at 37° C. in a 5% CO2 humidified atmosphere. Each concentration was tested in triplicate in the same plate, with wells photographed using a Leica camera (40× magnification). Tube length was quantified by measuring tubes in five randomly chosen fields from each well using MetaMorph software. Experiments were repeated at least three times.
as §2, with “5° k” for “5%”

[3] = tested on: Matrigel plugs in FVB mice; assay: Murine angiogenesis assay (Matrigel plug); assay type: in vivo; conditions: for Appearance of Matrigel plugs, with heparin: day 4, plus heparin (30 U), TMD23 10, 100, or 1,000 ng, bFGF 250 ng, VEGF 50 ng; for Magnitude of angiogenic reaction with heparin versus without: gels supplemented with both angiogenic factor and heparin
Procedure: To assess angiogenic effects in vivo, growth-factor-reduced liquid Matrigel (0.5 mL) containing heparin (60 U/mL) and various concentrations of TMD23, bFGF or VEGF was subcutaneously injected into FVB mice near the abdominal midline. Matrigel with PBS plus heparin served as the negative control, with bFGF and VEGF plus heparin as the positive control. Four days after injection, mice were sacrificed and Matrigel plugs were surgically removed. For macroscopic analysis of angiogenesis, hemoglobin content in Matrigel was measured using Drabkin reagent 525 (Sigma-Aldrich). For histological analysis, rat anti-mouse CD31 (PECAM-1, platelet endothelial cell adhesion molecule-1) antibody (Pharmingen) was used. The same specimens were used for hematoxylin and eosin (H&E) staining.

[4] = tested on: Matrigel plugs in FVB mice; assay: Murine angiogenesis assay (Matrigel plug); assay type: in vivo
HUVECs [5] = assay: Chemotaxis assay (Transwell); assay type: cell-based, human; conditions: inhibitor or antibody present with TMD23
Procedure: (§3) The chemotactic motility of HUVECs was assayed using Transwell (Costar) with 6.5-mm diameter polycarbonate filters (8-μm pore size). The lower filter surface was coated with 10 μg gelatin (Sigma-Aldrich). Various concentrations of TMD23 in the absence or presence of 10 μg/mL polyclonal rabbit anti-TMD23 antibody or 10 ng/mL vascular endothelial growth factor (VEGF) (R & D Systems, Inc.) in M199 were placed in the lower wells. One hundred mL cell suspension containing 1×10^5 cells was loaded into each of upper well. The chamber was incubated at 37° C. for 4 h. Cells were fixed with methanol and stained with 4′,6′-diamidino-2-phenylindole (DAPI). Chemotaxis was quantified with optical microscopy (Leica) at 100× magnification using MetaMorph imaging software (Universal Imaging Corporation) by counting the cells that migrated to the filter's lower side. Five random fields in each well were counted. Each sample was assayed in triplicate, and assays were repeated three times. To determine the role of extracellular signal-regulated kinase 1/2 (ERK1/2), p38 mitogen-activated protein kinase (MAPK), and phosphatidylinositol 3-kinase (PI3 kinase)-protein kinase B/Akt (Akt) in TMD23-mediated cell migration, assays were performed in the presence of U0126, a MAPK/ERK kinase (MEK) inhibitor, SB 203580, a p38 MAPK inhibitor, and LY 294002, a PI3 kinase inhibitor. Cell viability as determined by trypan blue staining was not altered by treatment. 00126 was purchased from Promega, with SB 203580 and LY 294002 from Calbiochem.
as §3, with “hundred μL” for “hundred mL”, “MAPK/ERK kinase-(MEK)” for “MAPK/ERK kinase (MEK)”, “treatment. U0126” for “treatment. 00126”

[6] = tested on: human melanoma A2058 cells in Matrigel; assay: Effect of TMD23 on tumor neoangiogenesis; assay type: in vivo, athymic nude mice; conditions: 18 days
Procedure: To assess TMD23 effects on tumor neoangiogenesis, 1×10^6 human melanoma A2058 cells (ATCC® CRL-11147) were mixed with Matrigel (0.5 mL) containing heparin (60 U/mL) and various concentrations of TMD23 and subcutaneously injected into athymic nude mice. Matrigel plugs were harvested after 18 days and frozen in liquid nitrogen. Blood vessels were detected by immunohistochemistry using anti-CD31 antibody as described above. Microvessel density (MVD) was calculated by counting six highly vascularized fields in each section (200× magnification; MetaMorph software).

[7] = tested on: human umbilical vein endothelial cells (HUVECs); assay: Cell proliferation assay (BrdU incorporation); assay type: cell-based; conditions: BrdU incorporation, FIG. 2A
Procedure: (§4) To evaluate the effect of TMD proteins on DNA synthesis in human umbilical vein endothelial cells (HUVECs), we performed a 5-bromo-2′-deoxyuridine (BrdU) incorporation assay with a commercial quantification kit (Roche Diagnostic GmbH) and manufacturer's protocol. Mitogenic effects induced by TMD proteins were also determined in the presence of polyclonal rabbit anti-TMD23 antibody (prepared by GlycoNex, Inc., Taiwan) that was purified by protein G-Sepharose column (Amersham Pharmacia Biotech AB).
as §4, with “(HUVECs),” for “(HUVECs), we performed”, “assay were performed” for “assay”

[8] = tested on: MMP-1, MMP-2, MMP-3, and MMP-9 in HUVEC conditioned medium; assay: Gelatin and casein zymographies; assay type: cell-based, human; conditions: 10 mM EDTA in incubation buffer
Procedure: as §1
as §1, with “zymographies. Lee O H, et al., Identification of angiogenic properties of insulin-like growth factor II in in vitro angiogenesis models. Brit J. Cancer. 2000; 82:385-391.” for “zymographies.”, “media. Shi G Y., et al., Plasmin and the regulation of tissue-type plasminogen activator biosynthesis in human endothelial cells. […]” for “media.”

In the case of “vascular endothelial growth factor [VEGF, reference compound]”, the “PAI activity in conditioned media of HUVECs” value [1] was “decreased significantly”, the “HUVEC tube formation on Matrigel” value (HUVECs [2]; 24 h, VEGF 10 ng/mL, TMD23 5 to 250 ng/mL) was “formed elongated capillary-like structures, with complete networks” and the “Appearance of Matrigel plugs, with heparin” value [3] was “bright red”. For the same compound, the “Magnitude of angiogenic reaction with heparin versus without” value [3] was “considerably greater”, the “Hemoglobin content of recovered Matrigel plugs” value ([3]; plus heparin, compared with controls) was “significantly increased” and the “Appearance of Matrigel plugs, without heparin” value [4] was “pale”.
In the case of `N#CC(=C(/N)Sc1ccccc1N)/C(C#N)=C(\N)Sc1ccccc1N` [U0126, reference compound], the “Effect on the stimulatory effect of TMD23 on HUVEC migration” value (HUVECs [5]) was “blocked” and the “Effect on the stimulatory effect of TMD23 on HUVEC tube formation” value (from here on “Effect … on HUVEC tube formation”) (HUVECs [2]) was “blocked”.
For `CCCCCCCCCCCCCC(=O)O[C@@H]1[C@@H](C)[C@@]2(O)[C@@H](C=C(CO)C[C@]3(O)C(=O)C(C)=C[C@@H]23)[C@@H]2C(C)(C)[C@]12OC(C)=O` [PMA], the “PAI activity in conditioned media of HUVECs” value [1] was “decreased significantly”.
With “basic fibroblast growth factor [bFGF, reference compound]” the “Appearance of Matrigel plugs, with heparin” value [3] was “bright red”, the “Magnitude of angiogenic reaction with heparin versus without” value [3] was “considerably greater” and the “Blood vessels in Matrigel plugs (CD31 staining)” value [6] was “significantly more blood vessels”. The “Tumor size developed by Matrigel plugs containing A2058 cells” value ([6]; compared with A2058 cells alone) was “bigger” and the “Appearance of Matrigel plugs, without heparin” value [4] was “pale”.
For `C[S+]([O-])c1ccc(-c2nc(-c3ccncc3)c(-c3ccc(F)cc3)[nH]2)cc1` (stereo not shown) [SB 203580, reference compound], the “Effect on the stimulatory effect of TMD23 on HUVEC migration” value (HUVECs [5]) was “blocked” and the “Effect … on HUVEC tube formation” value (HUVECs [2]) was “blocked”.
“TMD2: Recombinant human thrombomodulin fragment, amino acids Ala242-Cys480 of SEQ ID NO: 2, containing six EGF-like structures (D2)” was tested, and the “DNA synthesis in HUVECs” value [7] was “stimulated DNA synthesis”.
In the case of `COC(=O)[C@@H](N)CCCNC(=N)N[N+](=O)[O-]` [L-NAME, N^G-nitro-L-arginine methyl ester], the “Effect … on HUVEC tube formation” value (HUVECs [2]) was “blocked”.
With `O=C(O)CN(CCN(CC(=O)O)CC(=O)O)CC(=O)O` [EDTA, reference compound] the “Effect on the caseinolytic MMP-3 band” value [8] was “blocked specifically”.
